We go through one compound from patent publication US8541167B2 (priority 2004, dated 2013).

The subject of one experiment is ectromelia virus. Further details: species or system Mice. Particulars: mouse, in vivo, ip, 12.5 mg/kg/day.
In a further experiment the test system is ECTV. Also on record: species or system A/NCr mice. Particulars: mouse, in vivo.
The test system of experiment [1] is vaccinia, ectromelia or cowpox. Particulars: mouse, in vivo; cited from earlier work.

On to `Nc1ccn(C[C@@H](CO)OCP(=O)(O)O)c(=O)n1` [Cidofovir], for which the “effect of cidofovir during vaccination on level of protection from lethal disease” value in the experiment with ectromelia virus is recorded as “did not affect the level of protection”. Further, in the experiment on ECTV, the “protection from death afforded by vaccination in presence vs absence of CDV” value is “no difference observed”. The “efficacy in protecting mice from a lethal dose” value in experiment [1] was “high efficacy”.
